The numbers were not newly measured in US7671089B2 (XenoPort, Inc., priority 2004, dated 2010), which cites them from elsewhere.

For data set [1] the following is noted: following oral administration.
For data set [2] the following is noted: rats.

For `CC(C)(C)C(=O)Oc1ccc(C[C@H](N)C(=O)O)cc1O` [NB-355], in data set [1], the duration time entry is “prolonged” and the levels of levodopa result was “low”.

Turning to `C[C@@](Cc1ccc(O)c(O)c1)(NN)C(=O)O` [carbidopa], the “absorption following rectal administration” value in data set [2] was “poor”.
